Values after ≈ are worked out from the molar mass of the structure shown. Where two headings read alike, the source gives them in different places.
Columns and labels:
L-02 = assay: Cytotoxicity experiment (MTT), L-02; type: cell-based; details: Homo sapiens, L02, 48 h, L-02 normal cells, read-out: Inhibition ratio
Experimental: (§1) (1) Inoculating cells: Experimental cells in the growth of logarithmic phase were collected and suspended. The cell concentration of the suspension was adjusted so that they could be inoculated into the wells of 96-well micro plate at a density between 10^3-10^4 cells per well (200 μl per well). (2) Culturing cells: The cells were cultured at normal conditions for 3 days and then exposed to 50 uM compounds for test. (3) Coloring reaction: At 24 h, 48 h and 72 h after the cells being exposed to the compounds for test, 200 μl culture medium containing 20 μl MTT solution (5 mg/ml) was added into each well, and the well was further incubated at 37° C. for 2 hours to terminate the incubation. After the incubation, the supernatants were removed from the wells. In the event there were suspended cells in the wells, centrifugation should be performed before removal of supernatant from the wells. After the removal, 150 μl DMSO was added to each well and mixed thoroughly by agitation for 10 mins to fully dissolve crystals. (4) Ascertainment of colorimetry: The absorbance value at 490 nm of each well was determined by Enzyme-linked immunosorbent Monitor. The growth curve of the experimental cells was plotted by taking time as x-coordinate and absorbance value as y-coordinate. In addition, an inhibition ratio could be calculated in accordance with the following formula: Inhibition ratio=(absorbance value of control group-absorbance value of administering group)/absorbance value of control group×100%.

S. pneumoniae = assay: In vitro antibacterial activity (MIC), S. pneumoniae; type: cell-based; details: Streptococcus pneumoniae
Experimental: (§2) The test strain was inoculated into the liquid medium and cultured at 37° C. for 16-18 h. The culture liquid and MH medium were put into two blank wells of a 96-well plate, respectively. Then, the absorptions thereof were measured by a Microplate reader. The difference between the absorption values of the culture liquid and MH medium is the adsorption of the bacteria. The concentration of the culture liquid can be calculated according to the formula of 1OD=50 million CFU/mL. The culture liquid was diluted with the MH bouillon culture medium to 5000 CFU/mL for further use.
(§3) Compounds 12a, 13 and 14 were dissolved in DMSO to 1 mg/mL, and then filtered with a 0.22 μm filter to obtain the compound solutions. And then they were gradually diluted to a desired concentration (10× final concentration) with the liquid medium, so as to obtain a series of dilutions. The final concentration grade of the dilutions of each tested compound consists of 14 concentrations, which includes: 0.03125 μg/mL, […], 0.125 μg/mL, 0.25 μg/mL, […], 1 μg/mL, 2 μg/mL, 4 μg/mL, 8 μg/mL, 16 μg/mL, 32 μg/mL, 64 μg/mL, 128 μg/mL and 256 μg/mL.
(§4) 10 μL of each of the compound dilutions above was added into a well of a 96-well plate. 90 μL of the culture liquid (5000 CFU/mL) was added into each of the wells, respectively, mixed with the dilutions to render the tested compound concentration to the final concentration. The resulted mixture was incubated at 37° C. for 16-18 h, and then the OD630 thereof was measured. A culture liquid free of the tested compounds is used as a blank control, and three parallel tests with the same concentration of each compound were performed. The minimum inhibitory concentration (MIC) of each compound on the standard strain of Staphylococcus Aureus and other test strains was determined. Specifically, among the culture liquid contained in the wells of the micro-plate, the first three lowest concentrations under which growth of the test strains could be observed were chose for further evaluation of the MIC. A culture liquid free of tested compounds was used as a blank control. Each of the culture liquids was homogenized independently, and then was diluted with a sterile saline. Each of the diluted culture liquids was plated onto a MH bouillon plate and incubated at 37° C. for 20 h in incubator. After the incubation, the number of the colonies on each plate was counted. As compared with the blank control group, the lowest concentration of each of the test compound groups, at which 80% reduction in the colony number of the strains was achieved, was recorded as the MIC.

HEK-293 = assay: Cytotoxicity experiment (MTT), HEK-293; type: cell-based; details: Homo sapiens, HEK293, 48 h, HEK-293 normal cells, read-out: Inhibition ratio
Experimental: as §1

E. faecalis = assay: In vitro antibacterial activity (MIC), E. faecalis; type: cell-based; details: Enterococcus faecalis
Experimental: as §2, §3, §4

S. agalactiae = assay: In vitro antibacterial activity (MIC), S. agalactiae; type: cell-based; details: Streptococcus agalactiae
Experimental: as §2, §3, §4

S. aureus = assay: In vitro antibacterial activity (MIC), S. aureus; type: cell-based, Staphylococcus Aureus; details: Staphylococcus aureus
Experimental: Strains: strain ATCC25923 is available from the American Type Culture Collection, and is used as a standard strain of Staphylococcus Aureus;
Liquid medium: MH bouillon culture medium, a product of BD Company, United States of American;
Tested Compounds: compounds 12a, 13 and 14 prepared according to the methods above, and Linezolid purchased from Pfizer.
as §2, §3, §4

MIC (S. pneumoniae; S. pneumoniae (10 strains), read-out: MIC)	MIC (E. faecalis; E. faecalis (7 strains), read-out: MIC)	MIC (S. agalactiae; S. agalactiae (5 strains), read-out: MIC)	MIC (S. aureus; S. aureus (12 strains), read-out: MIC)	Compound	melting point	cytotoxicity at 50 µM (L-02)	MIC (S. pneumoniae)	cytotoxicity at 50 µM (HEK-293)	MIC (E. faecalis)	MIC (S. agalactiae)	MIC (S. aureus)
–	–	–	–	CC(=O)NC[C@H]1CN(c2ccc(-n3nccc3-c3ccc(Br)cc3)c(F)c2)C(=O)O1 [Compound 14d, (S)-N-((3-(3-fluoro-4-(5-(4-bromophenyl)-1H-pyrazol-1-yl)phenyl)-2-oxooxazolidin-5-yl)methyl)acetamide]	96.8 to 98.8 °C	39%	1 to 8 µg/mL (≈ 2.11 to 16.9 µM)	55%	2 to 16 µg/mL (≈ 4.23 to 33.8 µM)	2 to 16 µg/mL (≈ 4.23 to 33.8 µM)	2 to 16 µg/mL (≈ 4.23 to 33.8 µM)
0.5 to 8 µg/mL (≈ 1.22 to 19.6 µM)	0.5 to 8 µg/mL (≈ 1.22 to 19.6 µM)	0.25 to 8 µg/mL (≈ 0.612 to 19.6 µM)	1 to 8 µg/mL (≈ 2.45 to 19.6 µM)	CC(=O)NC[C@H]1CN(c2ccc(-n3cc(-c4ccc(C)cc4)cn3)c(F)c2)C(=O)O1 [Compound 13b, (S)-N-((3-(3-fluoro-4-(4-(p-tolyl)-1H-pyrazol-1-yl)phenyl)-2-oxooxazolidin-5-yl)methyl)acetamide]	221.5 to 222.8 °C	5.58%	–	12%	–	–	–
